Drawing on patent publication US10316017B2, “COT modulators and methods of use thereof” (Gilead Sciences, Inc., priority 2015, dated 2019), this text covers IC50 and EC50 for 18 compounds.

For orientation: IC50 means the concentration at which inhibition is half-maximal. Broadly, the EC50 is the concentration that produces a half-maximal response.

Where two headings read alike, the source gives them in different places.

Experiment [1] deals with T1, human Cot catalytic domain (30-397 amino acids) (Homo sapiens, UniProt P41279).
T1 construct: Purified recombinant human Cot catalytic domain (30-397 amino acids) was purchased from Cama Biosciences; purchased Cama Biosciences (so in the source)
T1 sequence (P41279 30-397): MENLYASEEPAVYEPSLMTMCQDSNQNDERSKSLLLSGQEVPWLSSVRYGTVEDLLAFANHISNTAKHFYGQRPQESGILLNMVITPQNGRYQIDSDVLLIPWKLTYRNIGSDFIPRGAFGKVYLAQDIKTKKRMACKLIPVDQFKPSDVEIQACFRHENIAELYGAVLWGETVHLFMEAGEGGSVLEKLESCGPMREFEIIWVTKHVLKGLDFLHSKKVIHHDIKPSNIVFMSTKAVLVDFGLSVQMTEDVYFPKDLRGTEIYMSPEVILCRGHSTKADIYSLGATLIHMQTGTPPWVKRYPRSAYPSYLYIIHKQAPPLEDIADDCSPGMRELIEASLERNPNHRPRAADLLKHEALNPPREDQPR
Description: High Throughput Cot Biochemical Assay (KinEASE TR-FRET). As to conditions: read-out: IC50 HTRF. In a few lines:
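First, purified human Cot (aa 30-397) at 5 nM phosphorylates an XL665-labeled STK3 peptide (1 μM) at 400 μM ATP, pH 7.0, 0.1% DMSO. Then a europium-conjugated phospho-specific antibody binds the product, giving the TR-FRET signal.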

In experiment [2] the test system is TNFα production in LPS-stimulated human monocytes. As to the kind of experiment: Cot Monocyte TNFα Cell Based Assay. As to conditions: Homo sapiens, Monocyte, read-out: EC50 TNF. In a few lines: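 5,000 cells/well; cmpd 1 h, 37 °C, 0.5% DMSO final; LPS 50 pg/ml, 4 h, 37 °C; media TNFα by HTRF sandwich (cryptate/XL665), RT overnight; % control vs unstimulated/stimulated wells.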

[3] abbreviates: Cot biochemical HTRF (KinEASE TR-FRET) assay.
[4] abbreviates: TNFα in LPS-stimulated human monocytes.
The mark [5] stands for this setting: Cot KinEASE TR-FRET (HTRF) biochemical assay, 400 μM ATP.
Setting [6] is: Cot KinEASE TR-FRET, 400 μM ATP.
The mark [7] stands for this setting: LPS-stimulated human monocytes, TNFα TR-FRET.

With `CC[C@@H](Nc1c(C#N)cnc2c(Cl)cc(N[C@@H](c3cccc(C(=O)O)c3)c3c[nH]nn3)cc12)c1ccccc1` [Example 565, 3-((S)-((8-chloro-3-cyano-4-(((R)-1-phenylpropyl)amino)quinolin-6-yl)amino)(1H-1,2,3-triazol-4-yl)methyl)benzoic acid], in experiment [1] (setting [3]), the half-inhibitory concentration (IC50) came out at 24 nM. Moreover, in experiment [2] (setting [4]), the EC50 was greater than 10000 nM.
Regarding `[2H]C(Nc1cc(Cl)c2ncc(C#N)c(N[C@H]3CCCC[C@H]3NC(=O)OC(C)(C)C)c2c1)(c1ccc(F)cc1)c1cn(C2CC2)nn1` (stereo in doubt) [Example 231, tert-butyl ((1R,2S)-2-((8-chloro-3-cyano-6-(((S)-(1-cyclopropyl-1H-1,2,3-triazol-4-yl)(4-fluorophenyl)methyl-d)amino)quinolin-4-yl)amino)cyclohexyl)carbamate], the half-inhibitory concentration (IC50) in experiment [1] (setting [5]) is greater than 10000 nM. For the same compound, in experiment [2] (setting [4]), the concentration for a half-maximal effect (EC50) was greater than 10000 nM.
Consider `[2H][C@](Nc1cc(Cl)c2ncc(C#N)c(NCCc3ccnn3C)c2c1)(c1ccc(F)cc1)c1cn(C2CC2)nn1` [Example 149, (S)-8-chloro-6-(((1-cyclopropyl-1H-1,2,3-triazol-4-yl)(4-fluorophenyl)methyl-d)amino)-4-((2-(1-methyl-1H-pyrazol-5-yl)ethyl)amino) quinoline-3-carbonitrile], for which the half-inhibitory concentration (IC50) in experiment [1] (setting [5]) came to 162 nM. For the same compound, the 50% effective concentration (EC50) in experiment [2] (setting [4]) was found to be 2110 nM.
Turning to `Cc1c(C#N)cccc1[C@H](Nc1cc(Cl)c2ncc(C#N)c(NCC(C)(C)C)c2c1)c1cn(C2(C3CC3)CC2)nn1` [Example 1109, (S)-6-(((1-([1,1'-bi(cyclopropan)]-1-yl)-1H-1,2,3-triazol-4-yl)(3-cyano-2-methylphenyl)-methyl)amino)-8-chloro-4-(neopentylamino)quinoline-3-carbonitrile], the IC50 in experiment [1] (setting [6]) came out at 5 nM. Besides, in experiment [2] (setting [7]), the EC50 came to 57 nM.
As to `CC(C)(C)N1CCC(n2cc([C@@H](Nc3cc(Cl)c4ncc(C#N)c(Nc5cccc(Cl)c5F)c4c3)c3ccccc3)nn2)CC1` [Example 628, (S)-6-(((1-(1-(tert-butyl)piperidin-4-yl)-1H-1,2,3-triazol-4-yl)(phenyl)methyl)amino)-8-chloro-4-((3-chloro-2-fluorophenyl)amino)quinoline-3-carbonitrile], the concentration for half-maximal inhibition (IC50) in experiment [1] (setting [3]) stood at 7 nM. Besides, the EC50 in experiment [2] (setting [4]) was found to be 109 nM.
Regarding `CC(C)(C)CNc1c(C#N)cnc2c(F)cc(N[C@H](c3cn(C4(C(F)(F)F)CC4)nn3)c3ccccc3Cl)cc12` [Example 1017, (S)-6-(((2-chlorophenyl)(1-(1-(trifluoromethyl)cyclopropyl)-1H-1,2,3-triazol-4-yl)methyl)amino)-8-fluoro-4-(neopentylamino)quinoline-3-carbonitrile], the IC50 in experiment [1] (setting [6]) was 85 nM. Also, the EC50 in experiment [2] (setting [7]) was no less than 1000 nM.
With `Cc1c(C#N)cccc1[C@H](Nc1cc(Cl)c2ncc(C#N)c(NCC(C)(C)C)c2c1)c1cn([C@@H](C)CF)nn1` [Example 1103, 8-chloro-6-(((S)-(3-cyano-2-methylphenyl)(1-((S)-1-fluoropropan-2-yl)-1H-1,2,3-triazol-4-yl)methyl)amino)-4-(neopentylamino)quinoline-3-carbonitrile], the 50% inhibitory concentration (IC50) in experiment [1] (setting [6]) was determined as 5 nM. In experiment [2] (setting [7]), the EC50 is 26 nM.
Taken in the same sequence, the figures for `Cc1c(-c2ccncc2)cccc1[C@H](Nc1cc(Cl)c2ncc(C#N)c(NCC(C)(C)C)c2c1)c1cn(C2(C(F)(F)F)CC2)nn1` [Example 1095, (S)-8-chloro-6-(((2-methyl-3 (pyridin-4-yl)phenyl)(1-(1-(trifluoromethyl)cyclopropyl)-1H-1,2,3-triazol-4-yl)methyl)amino)-4-(neopentylamino)quinoline-3-carbonitrile] were 12 nM and 226 nM.
With `CC(C)(C)CNc1c(C#N)cnc2c(Br)cc(N[C@@H](c3cccc(C(=O)O)c3)c3cn(C4CC4)nn3)cc12` [Compound 60], the IC50 in experiment [1] (setting [5]) was determined as 17 nM. The concentration giving a half-maximal response (EC50) in experiment [2] (setting [4]) is greater than 1000 nM.
As for `Cn1cc(C(Nc2cc(Br)c3ncc(C#N)c(Nc4ccc(F)c(Cl)c4)c3c2)c2ccc(F)cc2)nn1` (stereo not drawn) [Compound 8, 8-bromo-4-((3-chloro-4-fluorophenyl)amino)-6-(((4-fluorophenyl) (1-methyl-1H-1,2,3-triazol-4-yl)methyl)amino) quinoline-3-carbonitrile], the IC50 in experiment [1] (setting [5]) turned out to be 33 nM. Further, the concentration giving a half-maximal response (EC50) in experiment [2] (setting [4]) worked out at 571 nM.
Taken in the same sequence, the figures for `[2H][C@](Nc1cc(Cl)c2ncc(C#N)c(NCC3(C4CC4)CCC3)c2c1)(c1ccc(F)cc1)c1cn(C2CC2)nn1` [Example 260, (S)-8-chloro-6-(((1-cyclopropyl-1H-1,2,3-triazol-4-yl)(4-fluorophenyl)methyl-d)amino)-4-(((1-cyclopropylcyclobutyl)methyl)amino)quinoline-3-carbonitrile] were 33 nM and 584 nM.
Taken in the same sequence, the figures for `N#Cc1cnc2c(Cl)cc(N[C@@H](c3ccc(F)cc3)c3c[nH]nn3)cc2c1Nc1cccnc1F` [Example 373, (S)-8-chloro-6-(((4-fluorophenyl)(1H-1,2,3-triazol-4-yl)methyl)amino)-4-((2-fluoropyridin-3-yl)amino)quinoline-3-carbonitrile] were 3010 nM and 7520 nM.
For `[2H][C@@](Nc1cc(C#N)c2ncc(C#N)c(Nc3ccc(F)c(Cl)c3)c2c1)(c1cn(C2CC2)nn1)c1ccccc1Cl` [Example 182, (S)-4-((3-chloro-4-fluorophenyl)amino)-6-(((2-chlorophenyl)(1-cyclopropyl-1H-1,2,3-triazol-4-yl)methyl-d)amino) quinoline-3,8-dicarbonitrile], in experiment [1] (setting [5]), the half-maximal inhibitory concentration (IC50) was found to be 4 nM. Moreover, the EC50 in experiment [2] (setting [4]) was determined as 136 nM.
The like results for `[2H][C@](Nc1cc(Cl)c2ncc(C#N)c(N[C@H]3CCC[C@H](O)C3)c2c1)(c1ccc(F)cc1)c1cn(C2CC2)nn1` [Example 313, 8-chloro-6-(((S)-(1-cyclopropyl-1H-1,2,3-triazol-4-yl)(4-fluorophenyl)methyl-d)amino)-4-(((1S,3S)-3-hydroxycyclohexyl)amino) quinoline-3-carbonitrile] were, in that order, 39 nM and 527 nM.
`[2H][C@](Nc1cc(Cl)c2ncc(C#N)c(NC(C)(C)C)c2c1)(c1ccc(F)cc1)c1cn(C2CC2)nn1` [Example 283, (S)-4-(tert-butylamino)-8-chloro-6-(((1-cyclopropyl-1H-1,2,3-triazol-4-yl)(4-fluorophenyl)methyl-d)amino)quinoline-3-carbonitrile]: in experiment [1] (setting [5]), the 50% inhibitory concentration (IC50) is 90 nM. For the same compound, the EC50 in experiment [2] (setting [4]) was determined as 764 nM.
Regarding `COC(=O)c1cc([C@H](Nc2cc(Cl)c3ncc(C#N)c(NCC(C)(C)C)c3c2)c2cn(C3(C(F)(F)F)CC3)nn2)ccc1F` [Example 1088, methyl (S)-5-(((8-chloro-3-cyano-4-(neopentylamino)quinolin-6-yl)amino)(1-(1-(trifluoromethyl)cyclopropyl)-1H-1,2,3-triazol-4-yl)methyl)-2-fluorobenzoate], the concentration for half-maximal inhibition (IC50) in experiment [1] (setting [6]) was 22 nM. Moreover, in experiment [2] (setting [7]), the EC50 came out at 934 nM.
For `[2H][C@](Nc1cc(O)c2ncc(C#N)c(NCC(C)(C)C)c2c1)(c1ccc(F)cc1)c1cn(C2CC2)nn1` [Compound 43], the 50% inhibitory concentration (IC50) in experiment [1] (setting [5]) was determined as 1940 nM. Moreover, the concentration for a half-maximal effect (EC50) in experiment [2] (setting [4]) is greater than 10000 nM.
For the compound `[2H][C@](Nc1cc(Cl)c2ncc(C#N)c(NCCc3cccnc3)c2c1)(c1ccc(F)cc1)c1cn(C2CC2)nn1` [Example 271, (S)-8-chloro-6-(((1-cyclopropyl-1H-1,2,3-triazol-4-yl)(4-fluorophenyl)methyl-d)amino)-4-((2-(pyridin-3-yl)ethyl)amino)quinoline-3-carbonitrile], in experiment [1] (setting [5]), the concentration for half-maximal inhibition (IC50) was 434 nM. Further, the concentration for a half-maximal effect (EC50) in experiment [2] (setting [4]) came to 4560 nM.
